Source: ChEMBL document CHEMBL5465560, “Selectivity Literature for EUbOPEN Chemogenomic Library” (2024)

What was measured:
[1] = molecular target: T1, cGMP-dependent protein kinase 2 (Homo sapiens) (UniProt Q13237); assay: Selectivity interaction (KinomeScan (DiscoverX)) EUB0000655a PRKG2; settings: at 10 µM
T1 sequence (whole entry): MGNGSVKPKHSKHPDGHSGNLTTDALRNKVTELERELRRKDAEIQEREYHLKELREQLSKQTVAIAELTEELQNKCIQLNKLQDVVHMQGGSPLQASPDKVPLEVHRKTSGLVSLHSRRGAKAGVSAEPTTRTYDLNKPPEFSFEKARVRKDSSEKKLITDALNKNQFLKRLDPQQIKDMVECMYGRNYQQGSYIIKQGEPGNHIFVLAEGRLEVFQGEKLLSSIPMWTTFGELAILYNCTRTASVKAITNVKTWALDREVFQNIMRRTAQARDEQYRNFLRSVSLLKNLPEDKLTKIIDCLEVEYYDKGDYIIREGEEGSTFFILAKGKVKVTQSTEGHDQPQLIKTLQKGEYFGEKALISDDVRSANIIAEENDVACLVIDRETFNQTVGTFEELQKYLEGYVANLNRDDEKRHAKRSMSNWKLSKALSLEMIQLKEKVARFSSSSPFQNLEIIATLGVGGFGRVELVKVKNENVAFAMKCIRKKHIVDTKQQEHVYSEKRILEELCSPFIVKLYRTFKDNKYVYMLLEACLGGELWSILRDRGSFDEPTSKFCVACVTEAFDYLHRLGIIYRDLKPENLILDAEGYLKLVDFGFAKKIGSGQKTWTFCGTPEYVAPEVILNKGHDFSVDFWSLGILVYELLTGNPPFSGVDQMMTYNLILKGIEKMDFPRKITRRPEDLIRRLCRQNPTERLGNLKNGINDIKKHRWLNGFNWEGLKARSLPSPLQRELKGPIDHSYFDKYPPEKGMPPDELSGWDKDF

[2] = molecular target: Cyclin-dependent kinase 19 (Homo sapiens) (UniProt Q9BWU1); assay: Selectivity interaction (KinomeScan (DiscoverX)) EUB0001079a CDK19; settings: at 1 µM
[3] = Selectivity interaction (KinomeScan (DiscoverX)) EUB0000607a PKNB; settings: at 10 µM
[4] = molecular target: Serine/threonine-protein kinase Chk2 (Homo sapiens) (UniProt O96017); assay: Selectivity interaction (Upstate Kinase Profiler service (Millipore)) EUB0000056c CHEK2; settings: at 1 µM
[5] = molecular target: Maternal embryonic leucine zipper kinase (Homo sapiens) (UniProt Q14680); assay: Selectivity interaction (Upstate Kinase Profiler service (Millipore)) EUB0000056c MELK; settings: at 1 µM
[6] = molecular target: Histone-lysine N-methyltransferase, H3 lysine-36 specific (Homo sapiens) (UniProt Q96L73); settings: at 10 µM
[7] = molecular target: Tyrosine-protein kinase Lyn (Homo sapiens, UniProt P07948); settings: at 10 µM
[8] = molecular target: Tyrosine-protein kinase JAK2 (Homo sapiens, UniProt O60674); assay: Selectivity interaction (Kinase panel (Invitrogen)) EUB0000639a JAK2; settings: at 200 nM
[9] = molecular target: T2, Dual specificity mitogen-activated protein kinase kinase 3 (Homo sapiens) (UniProt P46734); assay: Selectivity interaction (KinomeScan (DiscoverX)) EUB0000092b MAP2K3; settings: at 10 µM
T2 sequence (whole entry): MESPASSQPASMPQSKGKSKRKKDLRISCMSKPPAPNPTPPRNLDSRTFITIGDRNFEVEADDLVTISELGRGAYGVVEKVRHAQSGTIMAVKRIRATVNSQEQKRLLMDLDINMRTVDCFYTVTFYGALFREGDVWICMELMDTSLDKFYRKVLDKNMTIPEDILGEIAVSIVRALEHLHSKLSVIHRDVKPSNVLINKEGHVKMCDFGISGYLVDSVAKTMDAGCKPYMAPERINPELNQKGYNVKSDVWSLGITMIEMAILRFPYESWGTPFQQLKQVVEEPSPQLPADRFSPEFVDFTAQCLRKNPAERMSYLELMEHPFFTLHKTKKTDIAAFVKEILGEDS

[10] = molecular target: T3, Serine/threonine-protein kinase TAO2 (Homo sapiens) (UniProt Q9UL54); assay: Selectivity interaction (KinomeScan (DiscoverX)) EUB0000695a TAOK2; settings: at 100 nM
T3 sequence (whole entry): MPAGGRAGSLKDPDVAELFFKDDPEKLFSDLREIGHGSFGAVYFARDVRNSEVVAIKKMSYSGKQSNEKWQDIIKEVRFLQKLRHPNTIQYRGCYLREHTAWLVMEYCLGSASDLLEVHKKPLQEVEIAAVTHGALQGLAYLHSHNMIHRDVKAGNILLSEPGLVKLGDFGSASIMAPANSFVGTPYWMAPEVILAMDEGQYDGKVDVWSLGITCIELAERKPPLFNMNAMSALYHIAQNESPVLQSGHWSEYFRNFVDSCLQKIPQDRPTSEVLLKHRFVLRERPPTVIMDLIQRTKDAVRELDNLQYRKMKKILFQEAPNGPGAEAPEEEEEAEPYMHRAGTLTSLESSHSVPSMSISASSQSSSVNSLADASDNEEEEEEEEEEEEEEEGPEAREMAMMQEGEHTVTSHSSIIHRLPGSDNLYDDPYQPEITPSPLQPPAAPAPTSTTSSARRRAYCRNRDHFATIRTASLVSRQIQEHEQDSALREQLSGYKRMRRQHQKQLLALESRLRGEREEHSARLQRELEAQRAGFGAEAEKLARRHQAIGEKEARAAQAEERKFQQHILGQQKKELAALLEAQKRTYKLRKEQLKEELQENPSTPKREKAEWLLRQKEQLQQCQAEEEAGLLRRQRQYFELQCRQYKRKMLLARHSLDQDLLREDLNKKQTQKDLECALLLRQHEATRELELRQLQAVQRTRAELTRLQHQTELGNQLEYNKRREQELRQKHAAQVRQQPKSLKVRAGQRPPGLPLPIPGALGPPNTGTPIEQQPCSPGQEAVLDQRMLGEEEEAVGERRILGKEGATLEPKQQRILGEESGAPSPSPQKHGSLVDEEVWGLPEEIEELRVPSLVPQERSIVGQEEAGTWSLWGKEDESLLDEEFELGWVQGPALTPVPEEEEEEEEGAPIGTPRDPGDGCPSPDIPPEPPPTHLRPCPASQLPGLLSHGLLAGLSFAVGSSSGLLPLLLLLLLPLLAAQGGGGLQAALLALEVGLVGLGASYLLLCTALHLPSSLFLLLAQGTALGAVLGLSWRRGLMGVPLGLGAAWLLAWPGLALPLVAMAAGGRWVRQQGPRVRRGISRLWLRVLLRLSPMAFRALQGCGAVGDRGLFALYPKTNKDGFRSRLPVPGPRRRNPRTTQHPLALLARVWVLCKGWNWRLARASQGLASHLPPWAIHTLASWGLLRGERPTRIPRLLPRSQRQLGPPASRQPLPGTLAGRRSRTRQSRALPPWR

Sequence of Histone-lysine N-methyltransferase, H3 lysine-36 specific (Homo sapiens) (Q96L73 whole entry): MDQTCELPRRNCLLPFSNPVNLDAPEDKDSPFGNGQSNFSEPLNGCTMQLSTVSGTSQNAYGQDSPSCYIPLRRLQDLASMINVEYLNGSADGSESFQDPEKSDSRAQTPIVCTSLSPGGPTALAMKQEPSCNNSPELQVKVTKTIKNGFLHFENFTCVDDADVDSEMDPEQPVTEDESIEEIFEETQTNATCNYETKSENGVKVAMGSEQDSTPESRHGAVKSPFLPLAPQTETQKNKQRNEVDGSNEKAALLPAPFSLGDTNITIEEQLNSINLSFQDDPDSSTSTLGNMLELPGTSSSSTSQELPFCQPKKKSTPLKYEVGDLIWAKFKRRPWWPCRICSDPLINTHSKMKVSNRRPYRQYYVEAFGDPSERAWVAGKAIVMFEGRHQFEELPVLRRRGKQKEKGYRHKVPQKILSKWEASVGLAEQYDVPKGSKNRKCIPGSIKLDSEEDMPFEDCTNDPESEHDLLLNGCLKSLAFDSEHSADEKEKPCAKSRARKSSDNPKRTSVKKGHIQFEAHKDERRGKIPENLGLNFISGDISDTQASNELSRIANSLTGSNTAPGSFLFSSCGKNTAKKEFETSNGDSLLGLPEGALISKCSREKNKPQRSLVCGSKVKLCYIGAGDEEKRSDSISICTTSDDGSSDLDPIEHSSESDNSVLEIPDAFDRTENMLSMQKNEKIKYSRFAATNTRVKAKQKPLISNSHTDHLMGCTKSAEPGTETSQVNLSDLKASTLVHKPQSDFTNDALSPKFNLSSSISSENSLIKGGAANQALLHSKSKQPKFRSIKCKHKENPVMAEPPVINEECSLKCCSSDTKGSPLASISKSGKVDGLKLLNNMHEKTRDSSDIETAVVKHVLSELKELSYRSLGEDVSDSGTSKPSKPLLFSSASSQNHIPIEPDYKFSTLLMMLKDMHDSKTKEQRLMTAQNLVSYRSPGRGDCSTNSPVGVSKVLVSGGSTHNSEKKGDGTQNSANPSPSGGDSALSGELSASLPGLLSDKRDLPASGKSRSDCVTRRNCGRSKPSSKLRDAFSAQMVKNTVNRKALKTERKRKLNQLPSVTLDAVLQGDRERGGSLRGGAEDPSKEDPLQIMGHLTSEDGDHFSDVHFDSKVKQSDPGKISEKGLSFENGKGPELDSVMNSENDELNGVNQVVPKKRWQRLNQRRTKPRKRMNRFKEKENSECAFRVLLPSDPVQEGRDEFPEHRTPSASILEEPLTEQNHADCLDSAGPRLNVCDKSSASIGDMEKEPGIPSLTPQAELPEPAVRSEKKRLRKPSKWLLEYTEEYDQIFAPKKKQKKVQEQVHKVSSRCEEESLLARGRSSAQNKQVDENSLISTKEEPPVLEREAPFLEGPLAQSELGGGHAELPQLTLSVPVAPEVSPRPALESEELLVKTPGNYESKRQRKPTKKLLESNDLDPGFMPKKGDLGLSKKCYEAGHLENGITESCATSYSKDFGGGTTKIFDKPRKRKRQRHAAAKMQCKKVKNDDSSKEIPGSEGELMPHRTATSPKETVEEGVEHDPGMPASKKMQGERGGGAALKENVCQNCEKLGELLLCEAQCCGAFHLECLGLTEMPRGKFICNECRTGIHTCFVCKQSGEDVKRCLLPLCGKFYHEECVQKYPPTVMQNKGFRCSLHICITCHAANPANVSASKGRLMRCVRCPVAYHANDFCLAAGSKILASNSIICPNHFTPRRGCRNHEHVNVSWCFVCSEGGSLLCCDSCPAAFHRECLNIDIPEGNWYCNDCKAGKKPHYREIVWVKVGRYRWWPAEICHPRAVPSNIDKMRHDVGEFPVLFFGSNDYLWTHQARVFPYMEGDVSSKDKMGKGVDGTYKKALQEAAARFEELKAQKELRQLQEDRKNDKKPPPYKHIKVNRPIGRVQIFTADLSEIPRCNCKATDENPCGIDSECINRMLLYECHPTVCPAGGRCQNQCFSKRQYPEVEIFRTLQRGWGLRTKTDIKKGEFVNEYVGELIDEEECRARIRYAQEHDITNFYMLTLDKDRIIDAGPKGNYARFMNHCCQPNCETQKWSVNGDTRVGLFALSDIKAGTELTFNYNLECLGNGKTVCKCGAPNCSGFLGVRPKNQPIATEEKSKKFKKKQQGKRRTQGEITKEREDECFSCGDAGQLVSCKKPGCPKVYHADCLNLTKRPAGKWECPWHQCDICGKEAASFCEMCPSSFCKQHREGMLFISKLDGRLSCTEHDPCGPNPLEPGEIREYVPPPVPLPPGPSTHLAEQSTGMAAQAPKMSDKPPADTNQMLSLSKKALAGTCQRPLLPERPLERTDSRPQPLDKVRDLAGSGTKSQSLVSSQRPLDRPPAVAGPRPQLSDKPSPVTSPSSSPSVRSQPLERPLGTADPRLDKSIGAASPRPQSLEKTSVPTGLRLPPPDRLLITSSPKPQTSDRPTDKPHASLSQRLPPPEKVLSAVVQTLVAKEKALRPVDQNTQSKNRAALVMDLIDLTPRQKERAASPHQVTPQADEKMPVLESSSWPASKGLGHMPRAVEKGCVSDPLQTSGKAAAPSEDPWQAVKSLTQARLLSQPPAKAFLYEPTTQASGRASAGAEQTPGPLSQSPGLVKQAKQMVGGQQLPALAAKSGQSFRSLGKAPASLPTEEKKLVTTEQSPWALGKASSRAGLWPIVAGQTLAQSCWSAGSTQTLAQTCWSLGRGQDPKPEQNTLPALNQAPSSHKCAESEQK
Sequence of Cyclin-dependent kinase 19 (Homo sapiens) (Q9BWU1 whole entry): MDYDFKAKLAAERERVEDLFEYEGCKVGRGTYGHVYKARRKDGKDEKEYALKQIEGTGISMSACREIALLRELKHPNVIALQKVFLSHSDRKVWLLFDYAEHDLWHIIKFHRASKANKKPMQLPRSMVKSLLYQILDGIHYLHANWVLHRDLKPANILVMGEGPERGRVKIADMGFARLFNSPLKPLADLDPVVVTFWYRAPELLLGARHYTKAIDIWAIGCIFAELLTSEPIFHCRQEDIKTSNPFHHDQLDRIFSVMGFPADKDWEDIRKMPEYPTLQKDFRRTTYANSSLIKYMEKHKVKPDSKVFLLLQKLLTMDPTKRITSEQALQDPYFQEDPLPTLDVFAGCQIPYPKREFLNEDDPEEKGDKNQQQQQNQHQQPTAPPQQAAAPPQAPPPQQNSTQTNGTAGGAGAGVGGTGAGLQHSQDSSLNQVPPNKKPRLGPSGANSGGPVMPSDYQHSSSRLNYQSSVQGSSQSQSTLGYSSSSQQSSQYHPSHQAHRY
Sequence of Tyrosine-protein kinase JAK2 (O60674 whole entry): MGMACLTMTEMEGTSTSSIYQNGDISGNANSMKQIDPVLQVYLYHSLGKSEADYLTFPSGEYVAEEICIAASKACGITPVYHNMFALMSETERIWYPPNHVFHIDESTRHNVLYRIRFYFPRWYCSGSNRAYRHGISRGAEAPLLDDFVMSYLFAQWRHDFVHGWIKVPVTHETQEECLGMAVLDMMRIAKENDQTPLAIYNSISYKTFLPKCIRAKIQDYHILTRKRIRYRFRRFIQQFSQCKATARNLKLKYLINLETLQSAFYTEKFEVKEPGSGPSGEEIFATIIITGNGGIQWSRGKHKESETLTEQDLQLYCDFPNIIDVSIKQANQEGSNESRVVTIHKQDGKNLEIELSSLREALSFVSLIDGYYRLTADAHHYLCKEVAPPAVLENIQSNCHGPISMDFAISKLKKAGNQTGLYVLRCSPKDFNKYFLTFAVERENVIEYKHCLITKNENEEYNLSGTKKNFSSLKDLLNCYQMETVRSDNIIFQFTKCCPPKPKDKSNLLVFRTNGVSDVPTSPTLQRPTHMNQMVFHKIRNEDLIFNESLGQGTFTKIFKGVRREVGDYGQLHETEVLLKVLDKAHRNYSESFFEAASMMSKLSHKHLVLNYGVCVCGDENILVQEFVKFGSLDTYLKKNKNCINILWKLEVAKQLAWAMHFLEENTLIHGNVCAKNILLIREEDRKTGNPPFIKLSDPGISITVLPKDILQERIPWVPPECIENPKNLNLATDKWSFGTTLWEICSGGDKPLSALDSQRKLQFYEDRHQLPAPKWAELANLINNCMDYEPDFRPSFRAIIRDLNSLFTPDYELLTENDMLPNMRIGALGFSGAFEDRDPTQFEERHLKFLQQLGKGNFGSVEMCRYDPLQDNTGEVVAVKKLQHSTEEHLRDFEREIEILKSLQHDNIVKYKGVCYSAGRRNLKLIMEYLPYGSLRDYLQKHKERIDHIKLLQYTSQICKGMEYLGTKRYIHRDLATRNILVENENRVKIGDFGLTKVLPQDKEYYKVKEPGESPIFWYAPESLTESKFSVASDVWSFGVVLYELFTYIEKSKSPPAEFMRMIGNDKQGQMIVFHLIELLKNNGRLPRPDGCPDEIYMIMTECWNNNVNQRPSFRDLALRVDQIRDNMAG
Sequence of Maternal embryonic leucine zipper kinase (Homo sapiens) (Q14680 whole entry, looked up): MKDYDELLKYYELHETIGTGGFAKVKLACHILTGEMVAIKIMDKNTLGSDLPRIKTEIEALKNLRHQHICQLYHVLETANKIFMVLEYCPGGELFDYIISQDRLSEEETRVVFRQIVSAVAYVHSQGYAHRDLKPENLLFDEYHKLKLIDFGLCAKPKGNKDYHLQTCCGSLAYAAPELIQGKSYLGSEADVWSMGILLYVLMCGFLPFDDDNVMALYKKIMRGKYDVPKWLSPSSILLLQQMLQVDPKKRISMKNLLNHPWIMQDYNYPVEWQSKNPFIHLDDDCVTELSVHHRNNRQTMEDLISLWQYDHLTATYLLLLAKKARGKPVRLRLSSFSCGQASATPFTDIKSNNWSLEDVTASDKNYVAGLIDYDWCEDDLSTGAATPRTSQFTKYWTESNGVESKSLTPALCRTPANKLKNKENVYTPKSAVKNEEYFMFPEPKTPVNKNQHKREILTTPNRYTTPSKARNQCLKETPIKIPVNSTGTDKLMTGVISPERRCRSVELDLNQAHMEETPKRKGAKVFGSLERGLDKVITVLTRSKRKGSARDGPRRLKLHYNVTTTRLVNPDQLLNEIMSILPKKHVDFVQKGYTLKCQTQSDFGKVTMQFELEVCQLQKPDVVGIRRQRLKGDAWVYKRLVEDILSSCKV

CN(C)CCOc1ccc(-c2nc(-c3ccncc3)c(-c3ccc4c(c3)CC/C4=N\O)[nH]2)cc1
% of control [1]: 29%

Nc1cnc(N2CCc3cc(S(=O)(=O)Nc4c(F)cc(Cl)cc4F)cc(N4CCCC4=O)c32)nc1 [TP-020n]
% of control [2]: 100%

CNC(=O)Nc1ccc(-c2nc(N3CC4CCC(C3)O4)c3cnn(C4CCC5(CC4)OCCO5)c3n2)cc1
% of control [3]: 94%

Cc1ccc(-c2ccc3c(ccc4sc5c(c43)NC[C@@H](C)NC5=O)n2)cn1
% of inhibition [4]: 44%
% of inhibition [5]: 10%

CNCCN1CCC(c2cc(CN(C)C(=O)c3cccc(Oc4ccccc4)c3)ccn2)CC1
% activity [6]: > 90%

Cc1cc([C@@H](C)Nc2ccccc2C(=O)O)c2nc(N3CCOCC3)cc(=O)n2c1 [AZD-6482]
% of control [7]: 99%

CC[C@@H]1[C@H](F)C(=O)N[C@@H]1COc1nccc2cc(C(N)=O)c(OC)cc12 [ZIMLOVISERTIB]
% of inhibition [8]: 12.5%

CCC(=O)N1CCN(c2ccc(-n3c(=O)ccc4cnc5ccc(-c6cnc7ccccc7c6)cc5c43)cc2C(F)(F)F)CC1
% of control [9]: 80%

Cc1cc(F)c(C(=O)Nc2cccc(-c3nncn3C(C)C)n2)cc1-n1cnc(C2CC2)c1
% of control [10]: 100%
